Source: PMC11053681, “Gold(I) and Silver(I) Complexes Containing Hybrid Sulfonamide/Thiourea Ligands as Potential Leishmanicidal Agents” (Pharmaceutics, 2024)
“Also recorded” adds a separate entry of the source. Like-named read-outs stand apart in the source and are kept apart here.

Key:
Vero cells = test: Cytotoxicity assay on Vero cells (resazurin); format: cell-based, African green monkey; conditions: 24 h treatment
Protocol: (§1) For the experiment, Vero cells (ATCC CRL-1587) were used in Roswell Parl Memorial Institute (RPMI) medium with 10% fetal bovine serum (FBS) (RPMI 10%) and 20 μg/mL of Gentamicin. They were cultivated in culture bottles of […] and kept in an oven at 37 °C with 5% carbon dioxide (CO2). When picked or used on the day of the experiment, the cells were detached from the wall of the bottles with saline and 1X trypsin/EDTA. To find out how many cells there were in the bottle, it was diluted in Turkey liquid and then we proceeded with the counting in the Neubauer Chamber to calculate the desired concentrations. The Vero cells were plated at […] cells per well, in 96-well plates, and kept in an incubator with 5% CO2 at 37 °C for 24 h. Then, the compounds were added in triplicate, starting at a concentration of 500 µM, with serial dilution being performed up to a concentration of 3.9 µM [54]. The treatment was carried out for 24 h, and, after adding 5 µL of resazurin, the fluorescence was read using a spectrofluorometer (EnSpire Perkin-Elmer, Waltham, MA, USA).

Leishmania braziliensis = test: Leishmanicidal activity against promastigotes (resazurin); format: cell-based; conditions: for IC50: promastigote form, 24 h treatment, resazurin, read-out: IC50 L. braziliensis; for SI L. braziliensis: selectivity index = CC50 (Vero) / IC50 (L. braziliensis promastigotes)
Protocol: (§2) The Leishmania infantum and Leishmania braziliensis strains were maintained in Schneider medium supplemented with 20% of SFB (Schneider 20%), cultivated in […] bottles and stored at 28 °C in a BOD oven. For the assays, parasites at the 5th day stationary growth phase were used.
(§3) The promastigotes metacyclic form of Leishmania infantum and Leishmania braziliensis were first filtered with an insulin syringe to break up rosettes and, then, were isolated from the culture in the stationary phase by centrifugation of 400× g for 4 min at a temperature of 4 °C [53]. The supernatant was subjected to a new centrifugation, heavier, of 2000× g for 30 min, also at 4 °C. The supernatant was discarded and the cell pallet formed from this centrifugation was resuspended in 10 mL of 10% Schneider medium. The process ensured the removal of cellular debris and dead parasites, as well as possible crystals from the culture medium, so that the quality of the experiment was guaranteed. Then, the promastigotes were diluted to 1:10 in paraformaldehyde (PFA) for counting in a Neubauer Chamber, with the concentrations adjusted for each experiment.
(§4) An amount of 1 × 10^7 parasites per well was used. The parasites were plated in 96-well plates. Then, the compounds were added in triplicate, starting at a concentration of 500 µM, with serial dilutions being performed up to a concentration of 3.9 µM [53]. The treatment was carried out for 24 h and, after adding 5 µL of resazurin, the fluorescence was read using a Enspire model spectrofluorometer (Perkin-Elmer, Waltham, MA, USA).

Leishmania infantum = test: as above; format: cell-based; conditions: for IC50: promastigote form, 24 h treatment, resazurin, read-out: IC50 L. infantum; for SI L. infantum: selectivity index = CC50 (Vero) / IC50 (L. infantum promastigotes)
Protocol: as §2, §3, §4

[1] = system: RAW macrophages infected with Leishmania infantum; test: Infectivity test / infection rate in RAW macrophages; format: cell-based; conditions: three concentrations (below IC50, IC50, above IC50), 24 h treatment
Protocol: For the infection of RAW macrophages adhered to the plates, we used parasites in the promastigote form of Leishmania infantum, in the stationary phase, in a ratio of 10:1 (promastigotes/macrophages).
Macrophages were plated in the amount of 5 × 10^4 cells per well, in 96-well plates, which were kept in a CO2 oven at 37 °C for 24 h. The parasites were plated at a concentration of 10:1. The plates were kept in a CO2 oven for 12 h until the parasites infected the cells. […] Plates were fixed with paraformol for further evaluation. Plaques were evaluated by counting parasites within 200 cells under the EVOS Cell Imaging System (Thermo Scientific, Waltham, MA, USA) microscope by staining with propidium iodide.
In view of the data obtained, the six most promising compounds (HL1^Ch, HL2^Ph, Ag3, Ag4, Ag6 and Au2) were selected for carrying out the infection rate test against the L. infantum parasite. […] This test was performed at four stages. The first step determined the percentage of the amount in 200 infected macrophages per parasite, the second determined the percentage of parasites that infects 100 cells/macrophages, the third determined the average percentage of parasites that infects 200 cells/macrophages and, finally, the fourth step indicated the infection rate, that is, the result of the amount of Leishmania per macrophage (obtained from the third step) multiplied by the percentage of infected macrophages. Figure 5 presents the graphs of the infection rates, while the other graphs can be found in Figure S7.4.

[2] = Cytotoxicity assay on Vero cells (resazurin); format: cell-based, African green monkey; conditions: African green monkey, Vero cells (ATCC CRL-1587), 24 h treatment
Protocol: as §1

[3] = Solubility in buffer for the fluorescence experiments; format: physicochemical; conditions: Tris-HCl buffer
Protocol: The compounds were solubilized in DMSO and then we made successive dilutions in a Tris-HCl 25 mmol L^−1 buffer, pH 8.0, containing 100 mmol L^−1 of NaCl. For all experiments, the final concentration of DMSO was kept constant and equal to 2.5%. Solutions with increasing concentrations of ligand and constant concentration of LbOYE (1 µmol L^−1) were prepared, which were kept at 25 °C for a period of 1h before acquisition of fluorescence emission spectra.
After the synthesis and structural characterization of the compounds, studies of interaction of the compounds and the recombinant LbOYE were carried out by fluorescence measurements.

| Compound | CC50 (Vero cells) [µM] | IC50 (Leishmania braziliensis) [µM] | SI L. braziliensis (Leishmania braziliensis) | IC50 (Leishmania infantum) [µM] | SI L. infantum (Leishmania infantum) | Infection rate of L. infantum in macrophages, in words [1] | CC50 at 24 h [2] [µM] | IC50 (Leishmania braziliensis; Leishmania braziliensis) [µM] | IC50 (Leishmania infantum; Leishmania infantum) [µM] | Solubility in buffer at the concentrations for the fluorescence experiments, in words [3] |
| --- | --- | --- | --- | --- | --- | --- | --- | --- | --- | --- |
| Cc1ccc(S(=O)(=O)NNC(Nc2ccccc2)=[S][Au+][S]=C(NNS(=O)(=O)c2ccc(C)cc2)Nc2ccccc2)cc1.[Cl-] [Au2, [Au(HL2^Ph)2]Cl] | 296 | 143.2 ± 0.085 | 2.06 | 41.69 ± 0.21 | 7.09 | able to inhibit the parasite infection inside the cells even at lower concentrations than that determined by their IC50 values; also recorded: able to inhibit the parasite infection even at lower concentrations than that of their IC50 values |  |  |  |  |
| Cc1ccc(S(=O)(=O)NNC(=S)Nc2ccc(Cl)cc2)cc1 [HL4^ClPh, N-(4-chlorophenyl)-2-tosylhydrazinocarbothioamide] |  |  | 0.13 |  | 0.16 |  | 16.8 | 133.8 ± 0.036 | 108.4 ± 0.104 |  |
| Cc1ccc(S(=O)(=O)NNC(Nc2ccc([N+](=O)[O-])cc2)=[S][Ag+][S]=C(NNS(=O)(=O)c2ccc(C)cc2)Nc2ccc([N+](=O)[O-])cc2)cc1.O=[N+]([O-])[O-] [Ag5, [Ag(HL5^NO2Ph)2]NO3] | 493 | 90.73 ± 0.236 | 5.44 | 78.79 ± 0.091 |  |  |  |  |  |  |
| Cc1ccc(S(=O)(=O)NNC(Nc2ccc([N+](=O)[O-])cc2)=[S][Au+][S]=C(NNS(=O)(=O)c2ccc(C)cc2)Nc2ccc([N+](=O)[O-])cc2)cc1.[Cl-] [Au5, [Au(HL5^NO2Ph)2]Cl] | 58.6 | 284 ± 0.259 | 0.21 | 295.5 ± 0.259 | 0.198 |  |  |  |  |  |
| C=CCNC(NNS(=O)(=O)c1ccc(C)cc1)=[S][Ag+][S]=C(NCC=C)NNS(=O)(=O)c1ccc(C)cc1.O=[N+]([O-])[O-] [Ag6, [Ag(HL6^Al)2]NO3] | > 500 | 305.2 ± 0.032 | >1.64 | 78.59 ± 0.605 | >6.36 | able to inhibit the parasite infection inside the cells even at lower concentrations than that determined by their IC50 values; also recorded: able to inhibit the parasite infection even at lower concentrations than that of their IC50 values |  |  |  | not soluble in the buffer used for the experiment |
| Cc1ccc(S(=O)(=O)NNC(Nc2ccc(Cl)cc2)=[S][Ag+][S]=C(NNS(=O)(=O)c2ccc(C)cc2)Nc2ccc(Cl)cc2)cc1.O=[N+]([O-])[O-] [Ag4, [Ag(HL4^ClPh)2]NO3] | > 500 | 84.62 ± 0.116 | >5.91 | 72.17 ± 0.036 |  | did not show a promising infection rate |  |  |  |  |
| Cc1ccc(S(=O)(=O)NNC(NC2CCCCC2)=[S][Ag+][S]=C(NNS(=O)(=O)c2ccc(C)cc2)NC2CCCCC2)cc1.O=[N+]([O-])[O-] [Ag1, [Ag(HL1^Ch)2]NO3] | 7.4 | 50.15 ± 0.02 | 0.15 | 57.42 ± 0.028 | 0.129 |  |  |  |  |  |
| Cc1ccc(S(=O)(=O)NNC(Nc2ccccc2)=[S][Ag+][S]=C(NNS(=O)(=O)c2ccc(C)cc2)Nc2ccccc2)cc1.O=[N+]([O-])[O-] [Ag2, [Ag(HL2^Ph)2]NO3] | 92.1 | 183.7 ± 0.027 | 0.50 | 280.5 ± 0.167 | 0.33 |  |  |  |  |  |
| C=CCNC(=S)NNS(=O)(=O)c1ccc(C)cc1 [HL6^Al, N-allyl-2-tosylhydrazinocarbothioamide] |  |  | 0.60 |  | 0.23 |  | 188 | 313.5 ± 0.063 | 812.8 ± 0.515 | not soluble in the buffer used for the experiment |
| Cc1ccc(S(=O)(=O)NNC(Nc2ccc(F)cc2)=[S][Au+][S]=C(NNS(=O)(=O)c2ccc(C)cc2)Nc2ccc(F)cc2)cc1.[Cl-] [Au3, [Au(HL3^FPh)2]Cl] | 28.8 | 194.9 ± 0.063 | 0.15 | 173.9 ± 0.087 | 0.17 |  |  |  |  |  |
| C=CCNC(NNS(=O)(=O)c1ccc(C)cc1)=[S][Au+][S]=C(NCC=C)NNS(=O)(=O)c1ccc(C)cc1.[Cl-] [Au6, [Au(HL6^Al)2]Cl] | 77.5 | 5554 ± 1.37 | 0.01 | 62.54 ± 0.151 | 1.24 |  |  |  |  | not soluble in the buffer used for the experiment |
